Results: ChEMBL document CHEMBL1126515 (Bioorg Med Chem Lett, 1993)

Assays:
[1] = target: T1, Gastrin/cholecystokinin type B receptor (Mus musculus, UniProt P56481); experiment: Compound measured for half-maximal inhibition of specific binding of [125I]bolton Hunter CCK-26-33 to CCK-B receptor in the mouse cerebral cortex.; assay type: tissue-based
T1 sequence (P56481 whole entry): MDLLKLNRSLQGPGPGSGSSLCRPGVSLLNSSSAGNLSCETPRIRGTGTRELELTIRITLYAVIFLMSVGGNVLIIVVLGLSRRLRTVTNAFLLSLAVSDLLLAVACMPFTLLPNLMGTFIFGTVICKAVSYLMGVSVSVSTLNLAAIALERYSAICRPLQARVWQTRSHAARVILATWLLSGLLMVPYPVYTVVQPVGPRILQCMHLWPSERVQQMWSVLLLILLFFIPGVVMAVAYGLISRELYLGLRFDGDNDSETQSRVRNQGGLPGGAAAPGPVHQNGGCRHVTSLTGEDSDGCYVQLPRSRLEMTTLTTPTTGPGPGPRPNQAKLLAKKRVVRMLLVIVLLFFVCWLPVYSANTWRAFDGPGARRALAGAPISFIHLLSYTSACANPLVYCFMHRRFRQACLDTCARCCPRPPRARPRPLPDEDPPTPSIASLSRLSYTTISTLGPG

[2] = target: T2, Cholecystokinin receptor type A (Rattus norvegicus, UniProt P30551)
T2 sequence (P30551 whole entry): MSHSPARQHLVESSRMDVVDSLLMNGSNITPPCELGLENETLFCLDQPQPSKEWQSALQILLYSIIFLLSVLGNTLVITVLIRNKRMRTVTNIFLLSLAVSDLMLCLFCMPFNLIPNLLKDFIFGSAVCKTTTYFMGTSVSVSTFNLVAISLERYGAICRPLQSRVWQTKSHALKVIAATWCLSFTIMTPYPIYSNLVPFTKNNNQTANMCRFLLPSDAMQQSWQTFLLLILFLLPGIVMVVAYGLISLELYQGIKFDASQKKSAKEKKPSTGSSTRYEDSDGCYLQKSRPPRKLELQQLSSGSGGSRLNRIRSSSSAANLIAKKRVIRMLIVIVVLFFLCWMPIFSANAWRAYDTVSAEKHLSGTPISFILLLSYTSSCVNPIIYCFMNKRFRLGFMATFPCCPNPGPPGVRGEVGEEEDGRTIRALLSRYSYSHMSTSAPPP
Description: Compound measured for half-maximal inhibition of specific binding of [125I]-Bolton Hunter CCK-26-33 to CCK-A receptor in the rat pancreas.

SMILES | IC50 [1] [nM] | IC50 [2] [nM]
O=C(O)C[C@@H](Cc1ccccc1)NC(=O)C(=Cc1c[nH]c2ccccc12)NC(=O)OC1C2CC3CC(C2)CC1C3 (some centres undefined) | 60 | 3.9
C[C@](Cc1c[nH]c2ccccc12)(NC(=O)OC1C2CC3CC(C2)CC1C3)C(=O)N[C@H](CC(=O)O)Cc1ccccc1 (some centres undefined) |  | 30

Further lines, results first:

IC50 [1] [nM] | IC50 [2] [nM] | SMILES
0.3 | 18 | O=C(O)C[C@H](Cc1ccccc1)NC(=O)C(=Cc1c[nH]c2ccccc12)NC(=O)OC1C2CC3CC(C2)CC1C3 (some centres undefined)
99 | 3.7 | O=C(O)C[C@@H](Cc1ccccc1)NC(=O)/C(=C/c1c[nH]c2ccccc12)NC(=O)OC1C2CC3CC(C2)CC1C3 (some centres undefined)
13 | 550 | O=C(O)C[C@H](Cc1ccccc1)NC(=O)/C(=C/c1c[nH]c2ccccc12)NC(=O)OC1C2CC3CC(C2)CC1C3 (some centres undefined)
